Measurements: article PMC13503280, “A pharmacological modality to sequester homomeric proteins” (Nature Chemical Biology, 2026)

How the values were obtained:
BCL6 = target: T1, BCL6 (Homo sapiens, UniProt P41182); assay: WB of BCL6 levels in Mino cells (soluble/insoluble fraction); assay type: cell-based; conditions: 20 h incubation
T1 construct: in Mino cells, as BCL6 is mostly expressed in B cells; endogenous in cells; host or cells: Mino (ATCC CRL-3000)
Description: Cells were incubated with DMSO at 0.1% or with compound in concentrations ranging 10–20,000 nM for 20 h unless indicated differently. […] Then, 20–40 μg of each sample was loaded and run on an SDS–PAGE gel, before transferring onto a nitrocellulose membrane using a Trans-Blot Turbo system (Bio-Rad) and blocking using a 5% BSA in TBS-T (w/v) solution for 1 h at room temperature. […] Imaging of the chemiluminescence signal was performed using a ChemiDoc XRS+ instrument (Bio-Rad). Primary band quantifications were normalized against β-actin bands.

c-Myc = assay: WB of c-Myc protein levels in Mino cells; assay type: cell-based; conditions: 20 h
Description: (§1) Cells were incubated with DMSO at 0.1% or with compound in concentrations ranging 10–20,000 nM for 20 h unless indicated differently. Following incubation, lysis was performed in RIPA buffer and the samples were measured for total protein quantification by BCA assay (Thermo Fisher Scientific, 23225). Then, 20–40 μg of each sample was loaded and run on an SDS–PAGE gel, before transferring onto a nitrocellulose membrane using a Trans-Blot Turbo system (Bio-Rad) and blocking using a 5% BSA in TBS-T (w/v) solution for 1 h at room temperature. Incubation with primary antibodies (mouse anti-BCL-6 (sc-7388, Santa Cruz, 1:500; overnight at 4 °C), mouse anti-Keap1 (sc-365626, Santa Cruz, 1:500; overnight at 4 °C), rabbit anti-LDHA (4H18L6, Thermo Fisher, 1:1,000; overnight at 4 °C), mouse anti-NQO2 (sc-271665, Santa Cruz, 1:500; overnight at 4 °C), rabbit anti-c-Myc (5605, Cell Signaling, 1:1,000; overnight at 4 °C) and mouse anti-β-actin (3700, Cell Signaling, 1:1,000; 1 h at room temperature) was performed and then the membranes were washed and incubated with a horseradish-peroxidase-conjugated secondary antibody (mouse 7076/rabbit 7074, Cell Signaling) at room temperature for 1 h. Imaging of the chemiluminescence signal was performed using a ChemiDoc XRS+ instrument (Bio-Rad). Primary band quantifications were normalized against β-actin bands.

Mino cells = assay: Viability measurements, Mino cells; assay type: cell-based; conditions: Mino cells, 72 h
Description: (§2) Cells were seeded in a transparent-bottom, black 96-well plate, at 15,000 cells per well in sixfold replications. in 90 µl of medium and left to adhere for at least 4 h. The cells were then treated with the respective compound by adding 10 µl of medium–-compound mixture for a final volume of 100 µl in each well. Cell-Titer blue reagent was used to measure viability according to the manufacturer’s instructions. Plate reader measurements were performed on a Tecan Spark Control 10 M fluorescence system.

Ramos cells = assay: Viability measurements, Ramos cells; assay type: cell-based; conditions: Ramos cells, 72 h
Description: as §2

HEK 293 cells = assay: Viability measurements, HEK 293 cells; assay type: cell-based; conditions: HEK 293 cells (lack BCL6 expression), 72 h
Description: as §2

Keap1 and BCL6 [1] = target: T2, Keap1 and BCL6 (Homo sapiens, UniProt P41182+Q14145); assay: WB of Keap1 and BCL6 in OCI-AML2 cells (hetero-PINCH); assay type: cell-based; design: endogenous in cells; host or cells: OCI-AML2; conditions: 20 h
Description: as §1

Keap1 = Keap1 (Homo sapiens, UniProt Q14145); assay: WB of Keap1 in HEK 293 cells (hetero-PINCH); assay type: cell-based; design: endogenous in cells; host or cells: HEK 293 (ATCC CRL-1573); conditions: HEK 293 cells (does not express BCL6), 20 h
Description: as §1

Keap1 and BCL6 [2] = target: T2, Keap1 and BCL6; assay: WB of Keap1 and BCL6 in Mino cells (hetero-PINCH); assay type: cell-based; design: Mino cells that express high levels of BCL6; endogenous in cells; host or cells: Mino; OCI-AML2; conditions: 20 h
Description: as §1

recombinant NQO2 = target: T3, recombinant NQO2 (Homo sapiens, UniProt P16083); assay: DLS of recombinant NQO2; assay type: biochemical; conditions: recombinant NQO2, room temperature, over time
T3 construct: made in house; host or cells: E. coli BL21(DE3)
T3 sequence (P16083 1-231): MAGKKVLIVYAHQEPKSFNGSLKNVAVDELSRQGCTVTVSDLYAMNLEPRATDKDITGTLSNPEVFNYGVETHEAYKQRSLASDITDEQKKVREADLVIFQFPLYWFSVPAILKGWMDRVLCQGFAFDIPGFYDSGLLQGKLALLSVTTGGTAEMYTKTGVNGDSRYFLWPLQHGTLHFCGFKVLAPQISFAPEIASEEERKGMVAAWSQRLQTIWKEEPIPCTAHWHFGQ
Description: (§3) DLS samples were prepared in the respective protein’s elution buffer, to which 0.01% Tween was added, along with the compound from a DMSO stock to obtain a final DMSO concentration of 2%. Samples were prepared at room temperature and measured at a constant temperature of 25 °C. All samples were passed through 0.1-μm filters and then placed in a clear-bottom black 384-well plate. DLS data were recorded using a DynaproPlate Reader III (Wyatt Technology). Data were processed with the supplied DYNAMICS software.

LDHA [3] = target: T4, LDHA (Homo sapiens, UniProt P00338); assay: Immunostaining of LDHA in U2OS cells; assay type: cell-based; design: endogenous in cells; host or cells: U2OS (ATCC HTB-96); conditions: 5µM, 20 hours
Description: For spinning disk confocal microscopy, cells were allowed to adhere to a 14-mm glass-bottom plate (MatTek P35G-1.5-14-C), followed by fixation with 3.7% formaldehyde for 5 min and permeabilization with 0.1% Triton X-100 for 10 min. The cells were then blocked with 5% BSA for 60 min at room temperature. Cells were stained with primary antibody, at a concentration of 1:100, for 3 h at room temperature and were then subjected to a secondary antibody conjugated to Alexa Fluor, at a concentration of 1:100–500, for 1 h at room temperature. Lastly, cells were also stained with DAPI for 10 min at room temperature.

LDHA [4] = target: T4, LDHA; assay: DLS of recombinant LDHA; assay type: biochemical; design: The gene encoding full-length WT human LDHA was cloned into pET28; His6 tag followed by a tobacco etch virus protease cleavage site (N); made in house; host or cells: Escherichia coli BL21(DE3); conditions: room temperature, over time
Description: as §3

[5] = target: T5, recombinant BCL6 BTB domain (Homo sapiens, UniProt P41182); assay: Intact protein LC–MS labeling of BCL6 BTB domain; assay type: binding; conditions: 2 μM protein, 10 μM compound, incubation 90 min
T5 construct: The BCL6 BTB domain (5–129) was cloned into the pET28-bdSumo vector; His–bdSumo (N, cleaved yes); made in house; host or cells: E. coli BL21(DE3) (as described for Keap1 BTB)
From the text: A covalent inhibitor of BCL6 that irreversibly binds a tyrosine residue in the BTB domain dimeric interface was previously reported. […] Importantly, the linker had to be long enough to minimize potential steric clashes between bridged homodimers yet short enough to forbid intramolecular binding of subunits from the same homodimer.
Extended Data Fig. 1 SAR of BCL6 targeting PINCHs. a. […] Representative results from 3 independent experiments, and c. These compounds’ structures. Source data

BCL6(1–275)–GFP = target: T6, BCL6(1–275)–GFP (Homo sapiens, UniProt P41182); assay: BCL6(1–275)–GFP puncta in HEK 293 cells; assay type: cell-based; conditions: HEK 293 cells overexpressing BCL6(1–275)–GFP
T6 construct: HEK 293 cells expressing GFP fused to BCL6 (residues 1–275); host or cells: HEK 293
Description: Automatic aggregate segmentation was conducted using the surface module with manual threshold fixed for all images of the same experiment (default 2-pixel smoothing, background subtraction with 0.9-μm largest sphere, morphological split with 0.5-μm seed point diameter). Analysis was conducted per cell by manually selecting regions covering the individual cell and not overlapping with neighboring cells.

NQO1 expression = assay: qPCR for NQO1 expression in OCI-AML2 cells after washout; assay type: cell-based; conditions: OCI-AML2, 250 nM 20 h, from 48 h after treatment
Description: Cells were treated with either DMSO or compound at 250 nM, followed by washing out the treated medium after 20 h and reseeding in fresh medium. Cells were then collected at several time points post washout. Total RNA was extracted using RNeasy mini kit (Qiagen, 74104). […] PCR amplification was carried out in Step-One Plus thermocycler (Applied Biosystems). Relative quantification was performed using standard curves. GAPDH was used for normalization.

recombinant Keap1 BTB = target: T7, recombinant Keap1 BTB (Homo sapiens, UniProt Q14145, S172A); assay: DLS of recombinant Keap1 BTB domain; assay type: biochemical; conditions: 50 μM Keap1 BTB, 50 μM compound, room temperature, over time
T7 construct: The Keap1 BTB domain (48–180) encoding the single substitution S172A was cloned into pET28-bdSumo vector; His–bdSumo (N, cleaved yes); made in house; host or cells: E. coli BL21(DE3)
Description: as §3

OCI-AML2 cells = assay: Viability measurements, OCI-AML2 cells; assay type: cell-based; conditions: OCI-AML2, 72 h
Description: as §2

U2OS cells = assay: Viability measurements, U2OS cells; assay type: cell-based; conditions: 72 h
Description: as §2

Nrf2 = assay: WB of Nrf2; assay type: cell-based; conditions: U2OS cells, 20 h compound treatment

T7 sequence (Q14145 48-180 S172A): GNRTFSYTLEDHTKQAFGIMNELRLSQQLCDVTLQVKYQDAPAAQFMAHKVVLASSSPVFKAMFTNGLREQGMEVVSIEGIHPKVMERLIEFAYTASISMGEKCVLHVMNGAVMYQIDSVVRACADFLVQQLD
Chain of Keap1 (Q14145 whole entry): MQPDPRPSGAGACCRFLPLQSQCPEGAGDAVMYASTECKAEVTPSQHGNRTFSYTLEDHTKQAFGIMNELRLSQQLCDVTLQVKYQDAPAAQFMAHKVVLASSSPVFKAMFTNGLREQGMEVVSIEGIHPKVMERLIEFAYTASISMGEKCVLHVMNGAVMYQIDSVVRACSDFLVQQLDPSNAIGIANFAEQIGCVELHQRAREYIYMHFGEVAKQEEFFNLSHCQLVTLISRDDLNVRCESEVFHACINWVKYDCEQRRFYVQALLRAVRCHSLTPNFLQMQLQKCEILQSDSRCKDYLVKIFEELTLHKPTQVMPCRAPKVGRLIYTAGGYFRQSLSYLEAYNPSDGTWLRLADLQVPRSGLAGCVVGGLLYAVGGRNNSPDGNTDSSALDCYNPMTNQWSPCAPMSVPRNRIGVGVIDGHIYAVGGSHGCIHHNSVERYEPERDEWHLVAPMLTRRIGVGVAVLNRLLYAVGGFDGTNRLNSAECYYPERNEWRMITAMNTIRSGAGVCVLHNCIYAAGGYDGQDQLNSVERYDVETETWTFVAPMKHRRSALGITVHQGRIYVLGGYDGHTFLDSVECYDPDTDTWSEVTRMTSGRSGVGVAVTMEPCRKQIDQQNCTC

## CNC(=O)COc1cc2cc(Nc3nc(N4C[C@H](C)C[C@H](C)C4)ncc3Cl)ccc2n(C)c1=O [BI-3802, reference compound]
BCL6
  BCL6 in soluble and insoluble fraction (WB): no accumulation in the insoluble fraction
c-Myc
  c-Myc protein levels (WB): no such effect on c-Myc
Mino cells
  effect on viability: no viability effect
Ramos cells
  effect on viability: no viability effect
HEK 293 cells
  effect on viability: no compound affected the viability

## COc1cc(Nc2cc(NCc3cccc(S(=O)(=O)F)c3)ccc2Cl)cc2cc(OCC(=O)NCCOCCOCCOCCOCCOCCOCCOCCOCCOCCOCCOCCOCCNC(=O)[C@]34CCC(C)(C)C[C@H]3[C@H]3C(=O)C=C5[C@@]6(C)C=C(C#N)C(=O)C(C)(C)[C@@H]6CC[C@@]5(C)[C@]3(C)CC4)c(=O)n(C)c12 [EL230]
Keap1 and BCL6 [1]
  Keap1 and BCL6 levels (WB): Keap1 and BCL6 were downregulated simultaneously
Keap1
  Keap1 level (WB): Keap1 remained unchanged
Keap1 and BCL6 [2]
  Keap1 and BCL6 levels in soluble/insoluble phase (WB): reduction in both Keap1 and BCL6 levels in the soluble phase

## Cc1ccc(-c2cn3cccc(C)c3n2)cc1S(=O)(=O)N1CCN(C(=O)COCCOCCOCC(=O)N2CCN(S(=O)(=O)c3cc(-c4cn5cccc(C)c5n4)ccc3C)CC2)CC1 [EL246]
Recombinant NQO2
  formation of larger species (DLS): ability to form larger species in solution

## Cc1nc2ccc(NC(=O)CC(NC(=O)CCCc3ccc(CC(C(=O)O)C(=O)O)cc3)C(=O)NCCOCCOCCOCCOCCNC(=O)C(CC(=O)Nc3ccc4nc(C)sc4c3)NC(=O)CCCc3ccc(CC(C(=O)O)C(=O)O)cc3)cc2s1 (stereo not drawn) [OS-47B]
LDHA [3]
  LDHA localization (immunostaining): no effect on LDHA localization
LDHA [4]
  formation of larger species (DLS): formation of larger species over time

## COc1cc(Nc2cc(NCc3cccc(S(=O)(=O)F)c3)ccc2Cl)cc2cc(OCC(=O)NCCOCCOCCOCCOCCOCCOCCOCCOCCOCCOCCOCCOCCOCCN)c(=O)n(C)c12 [compound 23]
Keap1 and BCL6 [2]
  Keap1 and BCL6 levels in soluble/insoluble phase (WB): did not induce such effects on either target

## CC1(C)CC[C@]2(C(=O)NCCOCCOCCOCCOCCOCCOCCOCCOCCOCCOCCOCCOCCOCCN)CC[C@]3(C)[C@H](C(=O)C=C4[C@@]5(C)C=C(C#N)C(=O)C(C)(C)[C@@H]5CC[C@]43C)[C@@H]2C1 [compound 24]
Keap1 and BCL6 [2]
  Keap1 and BCL6 levels in soluble/insoluble phase (WB): did not induce such effects on either target

## CNC(=O)COc1cc2cc(Nc3cc(NCc4cccc(S(=O)(=O)F)c4)ccc3Cl)cc(OC)c2n(C)c1=O [w8001]
[5]
  labeling of recombinant BCL6 BTB domain by intact protein LC–MS: 100%
BCL6(1–275)–GFP
  BCL6–GFP puncta formation: no such puncta
HEK 293 cells
  effect on viability: no compound affected the viability

## Bardoxolone [BDX, reference compound]
NQO1 expression
  duration of NQO1 upregulation after washout: returned closer to its original level
Recombinant Keap1 BTB
  formation of large species (DLS): did not appear
OCI-AML2 cells
  IC50: 1000 nM
U2OS cells
  IC50: 723 nM
Nrf2
  Nrf2 levels (WB): Nrf2 upregulation
